According to patent US20240208895A1, “BRANCHED-CHAIN AMINO ACID DERIVATIVES TO TREAT DISEASE” (INTRABIO LTD., priority 2021, published 2024):

Experiments:
OAT3 (SLC22A8) = target: T1, OAT3 (SLC22A8) (Homo sapiens, UniProt Q8TCC7); test: Inhibition of OAT3 uptake of known substrate estrone-3-sulfate; format: cell-based; settings: probe substrate estrone-3-sulfate 2 μM
T1 construct: host or cells: HEK-293
T1 sequence (Q8TCC7 1-542): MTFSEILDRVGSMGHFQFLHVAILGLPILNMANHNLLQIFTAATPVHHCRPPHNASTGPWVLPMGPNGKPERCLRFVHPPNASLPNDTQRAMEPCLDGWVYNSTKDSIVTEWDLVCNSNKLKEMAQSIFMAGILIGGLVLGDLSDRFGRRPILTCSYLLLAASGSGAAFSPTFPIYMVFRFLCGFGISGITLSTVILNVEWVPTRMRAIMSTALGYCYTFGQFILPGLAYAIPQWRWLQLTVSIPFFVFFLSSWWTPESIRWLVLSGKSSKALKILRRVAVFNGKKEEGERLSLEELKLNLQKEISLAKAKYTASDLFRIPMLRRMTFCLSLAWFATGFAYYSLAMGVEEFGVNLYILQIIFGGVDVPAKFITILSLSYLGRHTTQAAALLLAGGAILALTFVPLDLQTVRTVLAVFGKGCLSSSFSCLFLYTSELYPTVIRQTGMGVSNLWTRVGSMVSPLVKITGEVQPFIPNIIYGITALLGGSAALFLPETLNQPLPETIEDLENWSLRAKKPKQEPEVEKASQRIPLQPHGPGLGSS
Procedure: DMSO (0.5%) was the solvent control (SC) and the known inhibitor diclofenac (100 μM) was the positive control (PC). Data were fit to either the Michalis-Menten equation for uptake or the Hill equation for inhibition using the solvent control to define the top and the positive control inhibitor to define the bottom. Symbols represent the mean±SEM, n=3.
Human OAT1 (SLC22A6) and OAT3 (SLC22A8) overexpressing HEK-293 cells and control cells without transfected transporter (Corning® TransportoCells™) are plated to 24-well plates and cellular uptake of 10 to 100 μg/mL of a Compound of the Disclosure is measured in the absence and presence of transporter inhibitors. Uptake of a Compound of the Disclosure into control cells is measured only without chemical inhibitors. […] Cells are grown in DMEM (Gibco 4196, high glucose, without sodium pyruvate) supplemented with MEM non-essential amino acids and 10% fetal bovine serum. Cells are re-fed with fresh medium after attachment (4-6 hours post-seeding). Cell are plated at a density of 4×10^5/well in 24-well plates coated with poly-D-lysine. Transporter assays are conducted in 400 μL of HBSS supplemented with 10 mM Hepes, pH 7.4 […]
The IC50 value for the test item is determined by fitting the Hill equation in the following form: […]

[1] = target: T2, monocarboxylate transporter (MCT1) (Homo sapiens, UniProt P53985); test: Inhibition of MCT1 uptake of known substrate 2-thiophene glyoxylate; format: cell-based; set-up: expressed in transfected cells
T2 sequence (P53985 1-500): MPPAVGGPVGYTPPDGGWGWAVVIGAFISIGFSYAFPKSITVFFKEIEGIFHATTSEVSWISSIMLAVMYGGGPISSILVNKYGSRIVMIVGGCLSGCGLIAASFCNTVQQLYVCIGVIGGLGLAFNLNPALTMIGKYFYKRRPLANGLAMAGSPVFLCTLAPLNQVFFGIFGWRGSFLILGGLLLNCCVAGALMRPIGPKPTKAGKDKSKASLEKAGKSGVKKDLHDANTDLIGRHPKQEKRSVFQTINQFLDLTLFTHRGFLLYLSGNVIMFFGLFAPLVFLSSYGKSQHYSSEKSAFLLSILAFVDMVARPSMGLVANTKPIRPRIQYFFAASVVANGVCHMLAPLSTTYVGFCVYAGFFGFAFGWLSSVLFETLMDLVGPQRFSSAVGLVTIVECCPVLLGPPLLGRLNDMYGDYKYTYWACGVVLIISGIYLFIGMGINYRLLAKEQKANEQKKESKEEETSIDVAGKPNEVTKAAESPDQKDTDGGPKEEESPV
Procedure: FIG. 4(c) is a line graph showing concentration-inhibition curves for the inhibition of uptake of the known substrate 2-thiophene glyoxylate (500 μM) for MCT1. DMSO (0.5%) was the solvent control (SC) and the known inhibitor phloretin (500 μM) was the positive control (PC).
FIG. 4(d) is a line graph showing concentration-inhibition curves for the inhibition of uptake of the known substrate 2-thiophene glyoxylate (500 μM) for MCT1. DMSO (0.5%) was the solvent control (SC) and the known inhibitor phloretin (500 μM) was the positive control (PC).
The known probe substrates used as positive controls are 3 μM chlorothiazide for OAT1, 2 μM estrone-3-sulfate for OAT3, 10 μM gabapentin for LAT1, 50 μM Gly-Sar for PepT1, 500 μM thiophene-2-glyoxylic acid for MCT1.
The IC50 value for the test item is determined by fitting the Hill equation in the following form:
where A % is the percent activity remaining (the mean cellular uptake observed in the solvent control sample set to 100% and the mean cellular uptake observed in the presence of the positive control inhibitor set to 0%), Top and Bottom are the upper and lower plateau of A %. [I] is the inhibitor concentration and IC50 is the inhibitor concentration where the remaining activity is at the midpoint between the Top and Bottom.

`CC(=O)N[C@@H](CC(C)C)C(=O)O` [N-acetyl-L-leucine] showed an IC50 (OAT3 (SLC22A8)) of 0.7 mM, a Ki ([1]; assuming competitive inhibition, read-out: affinity (Ki) for MCT1, Cheng-Prusoff equation) of 4.3 mM and an IC50 ([1]; probe substrate 2-thiophene glyoxylate 500 μM) of 15 mM.
